Data from patent publication USRE43712E1, “Methods for assaying for antidepressant therapy markers” (The Board of Trustees of the Uniersity of Illinois, priority 2000, dated 2012).
Marks after values point to notes of the source that are not given here.

Legend:
Assay type in all cases: cell-based
[1] = tested on: Gsα; assay: Content of G protein (Gsα) in C6-2B glioma membranes after antidepressant treatment, quantitative immunoblot
Experimental: (§1) C6-2B cells (between passages 20 and 40) were grown in 175-cm^2 flasks in Dulbecco's modified Eagle medium, 4.5 g of glucose/L, 10% bovine serum, in a 10% CO2 atmosphere, at 37° C. for 3 days after splitting. […] Male Sprague-Dawley rats weighing 150-200 g were fed ad libitum and maintained in a 12-h light/dark cycle. […] 36:803-838, 1989]. […] Rat cerebral cortex membranes were prepared according to the method of Rasenick et al. [Nature, 294:560-562; 1981].
(§2) Rat cortex membrane, C6-2B cell membranes, or Triton extracts of each membrane preparation were subjected to SDS-PAGE followed by electrotransfer to polyvinylidene difluoride (PVDF) membrane. The PVDF membrane was incubated with a phosphate-buffered saline/Tween 20 Buffer (140 mM NaCl, […]. 0.1% Tween 20, pH 7.4) and 3% bovine serum albumin. The membrane was then incubated with polyclonal rabbit antisera against the various G protein subunits [RM (Gsα) or 116 (Gi1, Gi2, Gi3α)] at a 1:25,000 (RM) or 1:5,000 (116) dilution (see below for source of antibodies). […] Immunoreactivity was detected with an enhanced chemiluminescence (ECL) western blot detection system (Amersham) in accord with the manufacturer's instructions. The developed autoradiographs were analyzed by densitometry.
Purified recombinant GsαL (long form of Gsα; 1-10 ng/lane) was subjected to SDS-PAGE and transferred to PVDF membranes. The blots were incubated with antibody against Gsα (RM) and processed by ECL. Films were analyzed on a Molecular Dynamics densitometer, and the volume of each band was quantified and used to make a standard curve.
Experiments were conducted to determine whether Gsα is quantitatively altered by antidepressant therapy. For quantification of Gsα in C6-2B membrane, a standard curve was created using purified recombinant […]. Pure Gsα (1-20 ng/well) was subjected to SDS-PAGE and transferred to a PVDF membrane, Gsα was immunodetected by antisera against the as subunit of G protein.
To estimate the effect of antidepressant treatment on the amount of Gsα in C6-2B membranes, equal amounts (10 μg) of C6-2B glioma membrane proteins in control and chronically (3 days) antidepressant-treated groups were subjected to SDS-PAGE. Gsα was immunodetected by antisera against the αs subunit of G protein.

[2] = tested on: Gsα; assay: Sequential detergent extraction (Triton X-100 / Triton X-114) of Gsα from C6-2B glioma membranes; details: C6-2B cells; for GsαL in Remainder, % of corresponding value in control group / GsαL in Triton X-100 extract, % of corresponding value in control group / GsαL in Triton X-114 extract, % of corresponding value in control group / GsαS in Remainder, % of corresponding value in control group / GsαS in Triton X-100 extract, % of corresponding value in control group / GsαS in Triton X-114 extract, % of corresponding value in control group: mean ± SEM of 4-5 experiments
Experimental: as §1
Membrane proteins were extracted sequentially from C6-2B or rat synaptic membranes as described [Yan et al., J. Neurochem., 66:1489-1495; 1996]. These membranes were stirred on ice in HEPES (15 mM, pH 7.4) containing 1% Triton X-100 for 60 min followed by centrifugation at 100,000 g for 60 min at 4° C. The supernatant was reserved (Triton X-100 extract), and the resulting pellet was resuspended in Tris (15 mM, pH 7.4) containing 1.4% Triton X-114 and 150 mM NaCl. The solution was stirred for 60 min at 4° C. and centrifuged for 30 min at 100,000 g in the cold. The supernatant was saved (Triton X-114 extract). These supernatants and remaining pellet (remainder) were subjected to sodium dodecyl sulfate (SDS)-polyacrylamide gel electophoresis (PAGE) using 10% gels. All of the extraction buffers contained 1 mM PMSF and 1 mM EGTA.
as §2
A membrane-enriched fraction was prepared (see Example 1), and membrane proteins were extracted sequentially with Triton X-100 (Tx 100) and Triton X-114 (Tx 114). Equal amounts of these extracts were subjected to SDS-PAGE and transferred to PVDF membrane. The long and short forms of Gsα (GsαL and GsαS) from different fractions were identified by immunodetection.
Experiments were conducted according to the method set forth in Example 1 to assess the effects of different antidepressants on the detergent extraction of Gsα from C6-2B glioma cells.
The ratios of the percentage of Gsα extracted by the two detergents in the treatment versus control groups were compared and are set forth in Table 2 as percentage of control (i.e., each Triton X-100 extract was compared with the untreated Triton X-100 extract; the same was done for Triton X-114 extracts as well as the remainder).

[3] = tested on: Gsα; assay: Cellular localization of Gsα in C6-2B cells, immunofluorescence laser scanning confocal microscopy; details: 10 μM, 3 days
Experimental: C6-2B cells (between passages 30 and 50) were plated onto coverslips and allowed to attach overnight in Dulbecco's modified Eagle's medium. 4.5 g/l glucose, 10% bovine serum, and 100 μg/ml penicillin and streptomycin at 37° C. in a humidified 10% CO2 atmosphere. […] Therefore, the latter treatment paradigm was used in these experiments because it was easier to maintain the cell cultures for 3 days. […] The culture media and drug were changed daily. […] After the treatment duration, the cells were incubated in drug-free media for 45 to 60 minutes before fixation.
After treatment, cells were washed once with phosphate-buffered saline (PBS, […] NaCl, 2.6 mM KCl, 5.4 mM NaαPO4 7H2O, pH 7.4) and fixed with ice-cold methanol for 10 minutes. Cells were then washed three times with PBS followed by 2 h of blocking in 5% normal goat serum/0.2% fish skin gelatin in PBS. Primary antibody was added for 1.5 h, Gsα/RM1 (PerkinElmer Life Sciences, Boston, Mass.) 1:50 and Goα (Santa Cruz Biotechnology, Santa Cruz, Calif.) 2 μg/ml, followed by three washes with PBS. Oregon Green-labeled secondary antibody (Molecular Probes, Eugene, Oreg.) was added at a concentration of 8 μg/ml for 1 h followed by three PBS washes. The coverslips were mounted onto slides with Vectashield (Vector Laboratories. Burlingame, Calif.) containing diamidino-2-phenylindole as a mounting medium. Images were acquired using a Zeiss LSM510 laser-scanning confocal microscope (Carl Zeiss Inc., Thornwood, N.Y.). A single 488-nm beam from an argon/krypton laser was used for excitation of the Oregon Green. Differential interference contrast images were also acquired. Five experiments were performed and coverslips were examined. Approximately 2100 cells from control and desipramine-treated coverslips were counted by two investigators blind to the experimental conditions over the course of the five experiments.
The cellular distribution of Gsα was quantified in confocal imaged C6-2B cells using NIH-Image software (http://rsbinfonihpov/nih-image) as describe previously [Southwell et al., Cell Tissue Res., 292:37-45, 1998; Jenkinson et al., Br. J. Pharmacol., 126:131-136, 1999]. Images of 9×1 μm optical, planar sections taken from four randomly selected control and four randomly selected desipramine-treated cells were captured and the middle five sections from each cell were quantified. Total cellular Gsα fluorescence was measured by counting the number of pixels with intensity above threshold (determined by minimum intensity above background in this case 50 pixels). The areas of intensity were numbered and divided visually into those localized to the cell body and those localized to the processes and process tips. The total from each region was divided by the total cell pixel intensity and expressed as a percentage of the total. This was done for each section of each cell and the sections were averaged per cell to give an average percentage total per cell.
In a separate investigation, seven sets of 300 cells each from control group and desipramine-treated cells from five experiments were counted to determine the primary localization (processes and process tips or cell body) of Gsα within these cells. The majority of the cells stained positively for Gsα throughout the entire cell, but there was usually an enhancement in one of these regions. […] The counts are expressed as the ratio of process and process tip localization/cell body localization.
Studies were conducted to determine whether a shift in cellular localization of Gsα occurred in C6-2B cells subjected to antidepressants.
Twenty-one hundred cells from each group (control versus desipramine-treated) over a series of five experiments were examined to quantify the extent of the antidepressant effect. […] Abnormal cells or those not displaying processes were not included in the cell count. Cells (300-450) were counted per experiment and the ratio of category A cells to category B cells for each group is shown in FIG. 8. […]

[4] = tested on: Gsα; assay: Gsα in Triton-insoluble, caveolin-enriched versus Triton-soluble fraction of C6-2B cells (sucrose density gradient, immunoblot); details: chronic treatment, FIG. 3C
Experimental: as §2

[5] = C6-2B membranes, 10 μM drug for 3 days, mean ± SEM of 4-5 experiments

CN(C)CCC=C1c2ccccc2CCc2ccccc21 [Amitriptyline, amitriptyline]
Quantity of G proteins in membrane, treated versus control ([1]; C6-2B cells, 10 μM, 3 days, p>0.05): no significant differences
G protein amount, Total [1, 5]: 13.10 ± 0.34 ng/10 ug of membrane protein
G protein amount, αsL [1, 5]: 8.13 ± 0.17 ng/10 ug of membrane protein
G protein amount, αsS [1, 5]: 4.98 ± 0.21 ng/10 ug of membrane protein
GsαL in the Triton X-114 fraction versus control group ([2]; 10 μM, 3 days, FIG. 1): significantly lower
GsαL in Remainder, % of corresponding value in control group ([2]; 10 μM, 3 days): 83.4 ± 14.5%
GsαL in Triton X-100 extract, % of corresponding value in control group ([2]; 10 μM, 3 days): 120.3 ± 3.7^b %
GsαL in Triton X-114 extract, % of corresponding value in control group ([2]; 10 μM, 3 days): 84.5 ± 0.8^b %
GsαS in Remainder, % of corresponding value in control group ([2]; 10 μM, 3 days): 82.6 ± 5.1^a %
GsαS in Triton X-100 extract, % of corresponding value in control group ([2]; 10 μM, 3 days): 140.3 ± 9.3^b %
GsαS in Triton X-114 extract, % of corresponding value in control group ([2]; 10 μM, 3 days): 92.7 ± 3.8%

CC(N)Cc1ccccc1 (stereo not shown) [amphetamine]
Shift of Gsα to the less hydrophobic Triton X-100 fraction [2]: without effect

CN(C)CCCN1c2ccccc2Sc2ccc(Cl)cc21 [Chlorpromazine, chlorpromazine]
Gsα immunofluorescence in cell processes and process tips [3]: uniform distribution of Gsα similar to control
Cells displaying intense Gsα staining at the process tips (and processes) ([3]; control 64%): 68%
Decrease of the amount of Gsα in the caveolin-enriched Triton-insoluble fraction, normalized to equal caveolin [4]: no more than 25%
Shift of Gsα to the less hydrophobic Triton X-100 fraction [2]: did not exert these effects
GsαL in Remainder, % of corresponding value in control group ([2]; 10 μM, 3 days): 83.8 ± 22.0%
GsαL in Triton X-100 extract, % of corresponding value in control group ([2]; 10 μM, 3 days): 107.4 ± 8.3%
GsαL in Triton X-114 extract, % of corresponding value in control group ([2]; 10 μM, 3 days): 105.7 ± 6.5%
GsαS in Remainder, % of corresponding value in control group ([2]; 10 μM, 3 days): 100.4 ± 31.6%
GsαS in Triton X-100 extract, % of corresponding value in control group ([2]; 10 μM, 3 days): 113.4 ± 10.7%
GsαS in Triton X-114 extract, % of corresponding value in control group ([2]; 10 μM, 3 days): 102.2 ± 15.6%
